Measured values as given in patent publication US5770713A, “Phosphorothioate triester oligonucleotides and method of preparation” (Centre National de la Recherche Scientifique, priority 1993, dated 1998).

What was measured:
[1] = Stability of oligonucleotides in culture medium (RPMI + 10% serum), HPLC; type: in vitro ADME, fetal calf; conditions: 37° C.
Description: (§1) Distilled water is purified on a MilliQ system (Waters-Millipore), Acetonitrile is of HPLC-far UV quality (Fisons), Ammonium acetate is of "analytical" quality (MERCK), The culture media are composed of 90% of RPMI 1640 and 10% of heat-inactivated fetal calf serum (GIBCO), The cellular extracts were kindly supplied by a person -M. Aubertin (University of Strasbourg I). They are prepared in the following way: CEM cells in the exponential growth phase are separated from the culture medium by centrifugation (10^4 g, 4 min, […]). The residue (approximately100 μl, 5×10^7 cells) is dissolved in 2 ml of buffer (Tris-HCl 140 mM, pH=7.4) and sonicated. The lysate is centrifuged (10^5 g, 1 h, 4°) to eliminate membranes, organelles and chromatin. Two types of eluents were utilized for the HPLC:
(§2) The general conditions are the same as those used for the study of stability of the phosphorothioate triester dimers, as far as the method, the equipment and the chemical products are concerned. […]
30 μl of parent solution of oligonucleotide (being approximately 1.5 A260 units) are removed, which are added to 1470 μl of culture medium which has previously been filtered on a sterile Millex GV filter (Millipore 0.22 μm). […] The samples are immediately analyzed by HPLC (volume injected 80 μl) or preserved at -25° C. with a view to subsequent analysis.

[2] = Stability of oligonucleotides in cellular extract (CEM cells), HPLC; type: in vitro ADME; conditions: 37° C.
Description: as §1, §2
10 μl of oligonucleotide parent solution are added to 990 μl of cellular extract which have previously been filtered on a sterile Millex GV filter (Millipore, 0.22 μm). After mixing, fractions (100 μl) are distributed in sterile Eppendorf tubes, placed in an oven at 37° C., sampled at different times and immediately analyzed by HPLC.

[3] = Stability of dimers in culture medium (RPMI + 10% serum), HPLC; type: in vitro ADME, fetal calf; conditions: 37° C., C0 =5×10^-5 M; for % PS^- (molar fraction of phosphorothioate diester dinucleoside formed, relative to initial quantity of phosphorothioate triester dinucleoside): after complete decomposition of the starting triester; for % PO^- (molar fraction of phosphodiester dinucleoside, relative to initial quantity of phosphorothioate triester dinucleoside): calculated as 100-% PS^- formed; for half-life at 50 µM: read-out: t1/2 (time at the end of which half of the starting product has decomposed) (converted)
Description: as §1
(§3) A 10^-2 M solution of the compound to be studied is prepared in DMSO.
(§4) This solution is diluted with water to give a parent solution of concentration 5×10^-4 M.
a) Study of stability in culture medium:
100 μl of parent solution of the compound to be studied are added to 900 μl of culture medium which has previously been filtered on a Millex GV sterile filter (Millipore, 0.22 μm). After mixing, fractions (100 μl) are distributed in sterile Eppendorf tubes. These tubes are placed in an oven at 37° C. and removed as a function of the kinetic development. The samples are immediately analyzed by HPLC (volume injected: 80 μl) or preserved at -25° C. with a view to subsequent analysis.
(§5) tl/2 =time at the end of which half of the starting product has decomposed
(§6) % PO^- , % PS^- =molar fractions of phosphodiester dinucleoside and of phosphorothioate diester dinucleoside, expressed in relation to the initial quantity of phosphorothioate triester dinucleoside.
(§7) The percentage of PS^- corresponds to the quantity of phosphorothioate diester dinucleoside formed after complete decomposition of the starting phosphorothioate triester dinucleoside (considering that the phosphorothioate diester dinucleoside is stable under the condition used and accumulates).

[4] = Stability of dimers in cellular extract (CEM cells), HPLC; type: in vitro ADME; conditions: 37° C., C0 =5×10^-5 M; for % PS^- (molar fraction of phosphorothioate diester dinucleoside formed, relative to initial quantity of phosphorothioate triester dinucleoside): after complete decomposition of the starting triester; for half-life at 50 µM: human, cem cell extract, read-out: t1/2 (time at the end of which half of the starting product has decomposed)
Description: as §1, §3, §4
b) Study of stability in cellular extract: 100 μl of parent solution of the compound to be studied are added to 900 μl of cellular extract which has previously been filtered on a Millex GV sterile filter (Millipore, 0.22 μm). After mixing, fractions (100 μl) are distributed in Eppendorf tubes. These tubes are placed in an oven at 37° C. and removed as a function of the kinetic development. The samples are immediately analyzed by HPLC.
as §5, §6, §7

6b: completely alkylated phosphorothioate dodecamer 6b; from d(CP(S) Ap(s) Cp(s) Cp(s) Cp(s) Ap(s) Ap(s) Tp(s) Tp(s) Cp(s) Tp(s) G) SEQ. ID. NO: 1 (CACCCAATTCTG; DNA, backbone not given here; all phosphorothioate linkages alkylated) [Compound 6b, completely alkylated phosphorothioate dodecamer 6b; ID; NO: 1]
t1/2 of disappearance of the starting oligonucleotide [1]: 55 min | t1/2 of disappearance of the starting oligonucleotide [2]: < 2 min | t1/2 of formation of the totally deprotected oligonucleotide [2]: 25 min

Cc1cn([C@H]2C[C@H](OP(=O)(OC[C@H]3O[C@@H](n4cc(C)c(=O)[nH]c4=O)C[C@@H]3O)SCOC(=O)C(C)(C)C)[C@@H](CO)O2)c(=O)[nH]c1=O (stereo partly drawn) [Compound 4a, O-(Thymidin-3'-yl) O-(thymidin-5'-yl) S-(pivaloyloxymethyl) phosphorothioate]
% PS^- (molar fraction of phosphorothioate diester dinucleoside formed, relative to initial quantity of phosphorothioate triester dinucleoside) [3]: 20% | % PO^- (molar fraction of phosphodiester dinucleoside, relative to initial quantity of phosphorothioate triester dinucleoside) [3]: 80% | half-life at 50 µM [3]: 360 min | % PS^- (molar fraction of phosphorothioate diester dinucleoside formed, relative to initial quantity of phosphorothioate triester dinucleoside) [4]: 100% | half-life at 50 µM [4]: 40 min

CC(=O)SCCSP(=O)(OC[C@H]1O[C@@H](n2cc(C)c(=O)[nH]c2=O)C[C@@H]1O)O[C@H]1C[C@H](n2cc(C)c(=O)[nH]c2=O)O[C@@H]1CO (stereo partly drawn) [Compound 4b, O-(Thymidin-3'-yl) O-(thymidin-5'-yl) S-(acetylthioethyl) phosphorothioate]
% PS^- (molar fraction of phosphorothioate diester dinucleoside formed, relative to initial quantity of phosphorothioate triester dinucleoside) [3]: 50% | % PO^- (molar fraction of phosphodiester dinucleoside, relative to initial quantity of phosphorothioate triester dinucleoside) [3]: 50% | half-life at 50 µM [3]: 420 min | % PS^- (molar fraction of phosphorothioate diester dinucleoside formed, relative to initial quantity of phosphorothioate triester dinucleoside) [4]: 100% | half-life at 50 µM [4]: 10 min

CC(=O)SCSP(=O)(OC[C@H]1O[C@@H](n2cc(C)c(=O)[nH]c2=O)C[C@@H]1O)O[C@H]1C[C@H](n2cc(C)c(=O)[nH]c2=O)O[C@@H]1CO (stereo partly drawn) [Compound 4c, O-(Thymidin-3'-yl) O-(thymidin-5'-yl) S-(acetylthiomethyl) phosphorothioate]
% PS^- (molar fraction of phosphorothioate diester dinucleoside formed, relative to initial quantity of phosphorothioate triester dinucleoside) [3]: 80% | % PO^- (molar fraction of phosphodiester dinucleoside, relative to initial quantity of phosphorothioate triester dinucleoside) [3]: 20% | half-life at 50 µM [3]: 60 min | % PS^- (molar fraction of phosphorothioate diester dinucleoside formed, relative to initial quantity of phosphorothioate triester dinucleoside) [4]: 100% | half-life at 50 µM [4]: 5 to 10 min
